Experimental findings from ChEMBL document CHEMBL4418316, “Oxazole derivatives for use in the treatment of cancer” (2018) are described below.

By EC50 is commonly meant the concentration needed to bring the measured effect to its halfway point. Low values mean greater potency, high ones weaker potency.

The nature of assay [1]: Antiproliferative activity against mouse LM2 cells after 72 hrs by Celltiter-glo luminescence assay. In kind it is functional, cell-based. For orientation: Cellular ATP, detected with luciferase, serves as a proxy for viable cell number.
Assay [2] is described as follows: Ratio of EC50 for CRISPR PAICS knock out mouse LM2 cells to EC50 for mouse wild type LM2 cells. In kind it is functional.
A further assay relates to MDA-MB-231. Description: Antiproliferative activity against human MDA-MB-231 cells after 72 hrs by Celltiter-glo luminescence assay. The format is functional, cell-based. As to conditions: MDA-MB-231, 72 h.

As for `CCNCCn1cc(-c2ccc(Cl)c(NC(=O)c3coc(N)n3)c2)cn1`, in assay [1], the EC50 was in the range of 100 to 250 nM.

`Nc1nc(C(=O)Nc2cc(-c3cnn(C4CCCNC4)c3)ccc2Cl)co1` (configuration not stated): the EC50 in assay [1] is 100 to 250 nM.

The molecule `CN(C)CCOc1ncc(-c2ccc(Cl)c(NC(=O)c3coc(N)n3)c2)cn1` had an EC50 in assay [1] of 250 to 500 nM.

Consider `CN1CCN(Cc2ccc(-c3ccc(Cl)c(NC(=O)c4coc(N)n4)c3)cn2)CC1`, for which, in assay [1], the EC50 lay within 250 to 500 nM.

For the molecule `Nc1nc(C(=O)Nc2cc(-c3nc(CN4CCNCC4)cs3)ccc2Cl)co1`, in assay [1], the EC50 is under 100 nM.

As for `Nc1nc(C(=O)Nc2cc(-c3cnn(CCCNC4CC4)c3)ccc2Cl)co1`, the EC50 in assay [1] was in the range of 100 to 250 nM.

Consider `CC(C)NCCCOc1ccc(-c2ccc(Cl)c(NC(=O)c3coc(N)n3)c2)cn1`, for which the EC50 in assay [1] was in the range of 100 to 250 nM.

Molecule `CN(C)CCC(=O)N1CCC(n2cc(-c3ccc(Cl)c(NC(=O)c4coc(N)n4)c3)cn2)CC1` had an EC50 in assay [1] of 250 to 500 nM.

As to `CN1CCN(CCCn2cc(-c3ccc(Cl)c(NC(=O)c4coc(N)n4)c3)cn2)CC1`, the EC50 in assay [1] lay within 100 to 250 nM.

`CN1CCN(c2ccc(-c3ccc(Cl)c(NC(=O)c4coc(N)n4)c3)cn2)CC1` yielded an EC50 in assay [1] of 100 to 250 nM. Besides, the “Ratio EC50” value in assay [2] was over 10.

For `CNC1CCCN(Cc2csc(-c3ccc(Cl)c(NC(=O)c4coc(N)n4)c3)n2)C1` (configuration not stated), the EC50 in assay [1] was under 100 nM.

In turn, `Nc1nc(C(=O)Nc2cc(-c3cnn(CCCN4CCNCC4)c3)ccc2Cl)co1` showed an EC50 in assay [1] of 100 to 250 nM.

In turn, `CN(C)CCCn1cc(-c2ccc(Cl)c(NC(=O)c3coc(N)n3)c2)cn1` returned an EC50 in assay [1] of 100 to 250 nM.

`CN1CCC(NCc2ccc(-c3ccc(Cl)c(NC(=O)c4coc(N)n4)c3)cn2)CC1` returned an EC50 in assay [1] of 100 to 250 nM.

`CN(C)CCNC(=O)Cn1cc(-c2ccc(Cl)c(NC(=O)c3coc(N)n3)c2)cn1` returned an EC50 in assay [1] of 250 to 500 nM.

As for `CSc1ccc(-c2ccc(OCCCN(C)C)nc2)cc1NC(=O)c1coc(N)n1`, the EC50 in assay [1] lay within 250 to 500 nM.

For the molecule `CNCCn1cc(-c2ccc(Cl)c(NC(=O)c3coc(N)n3)c2)cn1`, the EC50 in assay [1] lay within 100 to 250 nM.

Turning to `CN(C)CCOc1ccc(-c2ccc(Cl)c(NC(=O)c3coc(N)n3)c2)cc1`, the EC50 in assay [1] lay within 100 to 250 nM.

As for `Nc1nc(C(=O)Nc2cc(-c3ccc(OC4CCNC4)nc3)ccc2Cl)co1` (configuration not stated), the EC50 in assay [1] was in the range of 250 to 500 nM.

In assay [1], `CN(C)CCCOc1ccc(-c2ccc(Cl)c(NC(=O)c3coc(N)n3)c2)cn1` had an EC50 of 100 to 250 nM.

`Nc1nc(C(=O)Nc2cc(-c3ccc(OC4CCNCC4)nc3)ccc2Cl)co1`: the EC50 in assay [1] lay within 250 to 500 nM.

Turning to `CNCC1CCN(Cc2ncc(-c3ccc(Cl)c(NC(=O)c4coc(N)n4)c3)s2)CC1`, in assay [1], the EC50 was under 100 nM.

In assay [1], `CCN(CC)CCCOc1ncc(-c2ccc(Cl)c(NC(=O)c3coc(N)n3)c2)s1` had an EC50 of under 100 nM.

For `Nc1nc(C(=O)Nc2cc(-c3cnn(C4CCN(CCO)CC4)c3)ccc2Cl)co1`, the EC50 in assay [1] was 100 to 250 nM.

As to `CN(C)CCCC(=O)N1CCC(n2cc(-c3ccc(Cl)c(NC(=O)c4coc(N)n4)c3)cn2)CC1`, the EC50 in assay [1] was in the range of 250 to 500 nM.

`CNC1CCCN(Cc2ncc(-c3ccc(Cl)c(NC(=O)c4coc(N)n4)c3)s2)C1` (configuration not stated) yielded an EC50 in assay [1] of 100 to 250 nM.

`CNC1CCC(n2cc(-c3ccc(Cl)c(NC(=O)c4coc(N)n4)c3)cn2)CC1` (mixture of isomers) displayed an EC50 in assay [1] of under 100 nM.

In turn, `Nc1nc(C(=O)Nc2cc(-c3cnc(OC4CCNCC4)s3)ccc2Cl)co1` registered an EC50 in assay [1] of under 100 nM.

For `CN1CCN(CCn2cc(-c3ccc(Cl)c(NC(=O)c4coc(N)n4)c3)cn2)CC1`, the EC50 in assay [1] fell in the range of 250 to 500 nM.

As to `Nc1nc(C(=O)Nc2cc(-c3ccc(CN4CCNCC4)cc3)ccc2Cl)co1`, the EC50 in assay [1] fell in the range of 250 to 500 nM.

As to `CN(C)CCCc1ncc(-c2ccc(Cl)c(NC(=O)c3coc(N)n3)c2)s1`, the EC50 in assay [1] was under 100 nM.

Turning to `Nc1nc(C(=O)Nc2cc(-c3ccc(CN4CC5CNCC5C4)nc3)ccc2Cl)co1` (configuration not stated), the EC50 in assay [1] is 250 to 500 nM.

`Nc1nc(C(=O)Nc2cc(-c3cnn(C4CCNC4)c3)ccc2Cl)co1` (configuration not stated) showed an EC50 in assay [1] of 100 to 250 nM.

In assay [1], `CN1CCC(n2cc(-c3ccc(Cl)c(NC(=O)c4coc(N)n4)c3)cn2)CC1` displayed an EC50 of 100 to 250 nM.

For the molecule `Nc1nc(C(=O)Nc2cc(-c3cnn(CCN4CCNCC4)c3)ccc2Cl)co1`, the EC50 in assay [1] lay within 250 to 500 nM.

In the case of `CN1CC(n2cc(-c3ccc(Cl)c(NC(=O)c4coc(N)n4)c3)cn2)C1`, the EC50 in assay [1] was 100 to 250 nM.

Turning to `CSc1ccc(-c2nc(CN3CCNCC3)cs2)cc1NC(=O)c1coc(N)n1`, the EC50 in assay [1] is under 100 nM.

`Nc1nc(C(=O)Nc2cc(-c3ccc(OCC4CCCNC4)nc3)ccc2Cl)co1` (configuration not stated) returned an EC50 in assay [1] of 250 to 500 nM.

`CN(C)CC(=O)N1CCC(n2cc(-c3ccc(Cl)c(NC(=O)c4coc(N)n4)c3)cn2)CC1` gave a concentration for a half-maximal effect (EC50) in assay [1] of 100 to 250 nM.

Turning to `CNCCCn1cc(-c2ccc(Cl)c(NC(=O)c3coc(N)n3)c2)cn1`, the EC50 in assay [1] is under 100 nM.

For the molecule `Nc1nc(C(=O)Nc2cc(-c3ccc(CN4CCNCC4)nc3)ccc2Cl)co1`, the half-maximal effective concentration (EC50) in assay [1] is 250 to 500 nM.

`CN(C)CCCOc1ccc(-c2ccc(Cl)c(NC(=O)c3coc(N)n3)c2)nc1`: the EC50 in assay [1] fell in the range of 250 to 500 nM.

In assay [1], `Nc1nc(C(=O)Nc2cc(-c3cnn(C4CCNCC4)c3)ccc2Cl)co1` had an EC50 of 250 to 500 nM.

As for `Cc1nn(C2CCNCC2)cc1-c1ccc(Cl)c(NC(=O)c2coc(N)n2)c1`, the EC50 in assay [1] lay within 100 to 250 nM.

In turn, `CN(C)CCC(=O)N1CC(Cn2cc(-c3ccc(Cl)c(NC(=O)c4coc(N)n4)c3)cn2)C1` returned an EC50 in assay [1] of 250 to 500 nM.

In assay [1], `CN(C)CCCOc1ncc(-c2ccc(Cl)c(NC(=O)c3coc(N)n3)c2)s1` showed an EC50 of under 100 nM. Also, the “Ratio EC50” value in assay [2] is reported as over 30.

`Nc1nc(C(=O)Nc2cc(-c3ccc(N4CCNCC4)cc3)ccc2Cl)co1` gave an EC50 in assay [1] of 250 to 500 nM.

In turn, `Nc1nc(C(=O)Nc2cc(-c3cnc(OC4CCNCC4)nc3)ccc2Cl)co1` yielded an EC50 in assay [1] of 250 to 500 nM.

On to `CN1CCC(NC(=O)Cn2cc(-c3ccc(Cl)c(NC(=O)c4coc(N)n4)c3)cn2)CC1`, for which the EC50 in assay [1] lay in the range of 250 to 500 nM.

As to `CN(C)CCCOc1nc(-c2ccc(Cl)c(NC(=O)c3coc(N)n3)c2)cs1`, the EC50 (in assay [1]; in the assay with MDA-MB-231) was 250 to 500 nM in each case.

As to `CCNCCCn1cc(-c2ccc(Cl)c(NC(=O)c3coc(N)n3)c2)cn1`, the EC50 in assay [1] is under 100 nM. The “Ratio EC50” value in assay [2] is recorded as over 80.

Take `CN(C)C1CCN(C(=O)Cn2cc(-c3ccc(Cl)c(NC(=O)c4coc(N)n4)c3)cn2)CC1`: the EC50 in assay [1] was in the range of 250 to 500 nM.

In assay [1], `CC1CN(C(=O)Cn2cc(-c3ccc(Cl)c(NC(=O)c4coc(N)n4)c3)cn2)CCN1` (configuration not stated) had an EC50 of 250 to 500 nM.

In assay [1], `CN1CCN(c2ncc(-c3ccc(Cl)c(NC(=O)c4coc(N)n4)c3)s2)CC1` returned an EC50 of 100 to 250 nM.

For the molecule `CNCCCOc1ccc(-c2ccc(Cl)c(NC(=O)c3coc(N)n3)c2)cn1`, the EC50 in assay [1] lay in the range of 100 to 250 nM.

In turn, `Nc1nc(C(=O)Nc2cc(-c3ccc(CN[C@H]4CC[C@H](N)CC4)nc3)ccc2Cl)co1` registered an EC50 in assay [1] of 250 to 500 nM.

For the molecule `N#Cc1nn(C2CCNCC2)cc1-c1ccc(Cl)c(NC(=O)c2coc(N)n2)c1`, the EC50 in assay [1] lay in the range of 100 to 250 nM.

On to `CNC1CCN(Cc2ncc(-c3ccc(Cl)c(NC(=O)c4coc(N)n4)c3)s2)CC1`, for which, in assay [1], the EC50 was under 100 nM.

As to `CN(C)CCOc1ccc(-c2ccc(Cl)c(NC(=O)c3coc(N)n3)c2)cn1`, the EC50 in assay [1] fell in the range of 250 to 500 nM.

`CSc1ccc(-c2cnc(OCCCN(C)C)s2)cc1NC(=O)c1coc(N)n1`: the EC50 in assay [1] was 100 to 250 nM.

For `CN(C)C1CCN(Cc2csc(-c3ccc(Cl)c(NC(=O)c4coc(N)n4)c3)n2)CC1`, the EC50 in assay [1] was in the range of 100 to 250 nM.

In assay [1], `Nc1nc(C(=O)Nc2cc(-c3cnc(CN4CCNCC4)s3)ccc2Cl)co1` had an EC50 of 100 to 250 nM.

`Nc1nc(C(=O)Nc2cc(-c3ccn(C4CCNCC4)n3)ccc2Cl)co1` registered an EC50 in assay [1] of 250 to 500 nM.
